Key:
[1] = test system: blood pressure; test: Blood Pressure Reducing Action: Intravenous Injection; format: in vivo, Male Wister rats; conditions: anesthetized rat; for ED (50 mmHg reduction): iv, from dose-response curve, read-out: MABP50 (dose required for reducing average blood pressure by 50 mmHg); for Reduction of Blood Pressure: i.v.
Protocol: Male Wister rats (mean body weight: 420 g) were anesthetized by intra-peritoneal injection of 50 mg/kg of pentobarbital sodium and were fixed on their backs, and their blood pressures were measured at left femoral artery. Subsequently, a compound to be tested was dissolved in a saline solution containing 0.25% bovine serum albumin and injected into the rat through the right femoral vein.
A dose-response curve was prepared from the above values to determine a dose required for reducing average blood pressure by 50 mmHg (MABP50). MABP50 for the above compound was 21 ng/kg.

[2] = test system: blood pressure; test: Blood Pressure Decreasing Action: Oral Administration; format: in vivo, Spontaneously hypertensive male rats; conditions: 10 mg/kg
Protocol: Spontaneously hypertensive male rates (average body weight: 359 g) were etherized and fixed on their backs. Blood pressure was measured for each rat through cannulation at its left femoral artery. A compound to be tested was dissolved in a distilled water and the resulting aqueous solution was administered orally.

[3] = test system: platelet; test: Blood Platelet Agglutination Action; format: cell-based, male Japanese white rabbit; conditions: Oryctolagus cuniculus; for EC50: from agglutination curve
Protocol: A male Japanese white rabbit was anesthetized by pentobarbital, and a blood was collected in aqueous 3.13% sodium citrate solution at its carotid. The blood containing 1/10 volume ratio of the sodium citrate solution was treated in a conventional manner to give a platelet rich plasma (PRP) and a platelet poor plasma (PPP) for performing the following experiment.
PRP was diluted with PPP to give a sample containing platelets at 300,000/mm^3.
Agglutination of platelet was determined by means of Platelet Aggregation Tracer PAT-4A(available from Niko Bioscience Co., Ltd., Japan). 10 μl of a test solution was added to 190 μl of PRP to give a final solution of 2×10^-10 to 2×10^-4 M, and an agglutination curve is recorded. For the preparation of the test solution, a saline solution containing 0.25% bovine serum albumin.
Agglutination of Platelet

| Compound | ED (50 mmHg reduction) [1] | Reduction of Blood Pressure ([2]; after 30 min) | Reduction of Blood Pressure ([2]; after 1 hr) | Reduction of Blood Pressure ([2]; after 2 hrs) | Reduction of Blood Pressure ([2]; after 3 hrs) | Reduction of Blood Pressure ([2]; after 4 hrs) | Reduction of Blood Pressure ([2]; after 5 hrs) | Reduction of Blood Pressure ([2]; after 6 hrs) | EC50 ([3]; table) | other results |
| --- | --- | --- | --- | --- | --- | --- | --- | --- | --- | --- |
| CCCCCCCCCCCCCCCCOC(C)C(COP(=O)([O-])OC1CC[N+](C)(C)C1)OC(C)=O (stereo not drawn) [Example 3, 2-Acetyloxy-3-hexadecyloxybutyl 1,1-dimethylpyrrolidinio-3-yl phosphate] | 8.5 µg/kg | -49.7 mmHg | -60.7 mmHg | -74.3 mmHg | -82.0 mmHg | -84.7 mmHg | -83.7 mmHg | -82.3 mmHg | 400 nM |  |
| CCCCCCCCCCCCCCCCOC(C)C(COP(=O)([O-])OC1CCC[N+](C)(C)C1)OC(C)=O (stereo not drawn) [Example 4, 2-Acetyloxy-3-hexadecyloxybutyl 1,1-dimethylpiperidinio-3-yl phosphate] | 0.34 µg/kg | -66.0 mmHg | -68.0 mmHg | -73.0 mmHg | -72.3 mmHg | -66.7 mmHg | -63.0 mmHg | -66.7 mmHg | 22 nM |  |
| CCCCCCCCCCCCCCCCOCC(OC(C)=O)C(OP(=O)([O-])OC1CC[N+](C)(C)C1)C(C)C (stereo not drawn) [Example 6, 2-Acetyloxy-3-hexadecyloxy-1-(1-methylethyl)-propyl 1,1-dimethylpyrrolidinio-3-yl phosphate] | 48 µg/kg |  |  |  |  |  |  |  | 5000 nM |  |
| CCCCCCCCCCCCCCCCOCC(COP(=O)([O-])OC1CC[N+](C)(C)C1)OC(C)=O (stereo not drawn) [Example 8, 2-Acetyloxy-3-hexadecyloxypropyl 1,1-dimethylpyrrolidinio-3-yl phosphate] | 0.021 µg/kg |  |  |  |  |  |  |  |  | Reduction of Blood Pressure ([1]; 1 ng/kg): -4.5 ± 1.5 mmHg; Reduction of Blood Pressure ([1]; 5 ng/kg): -21.5 ± 8.0 mmHg; Reduction of Blood Pressure ([1]; 10 ng/kg): -47.5 ± 0.5 mmHg; Reduction of Blood Pressure ([1]; 50 ng/kg): -52.6 ± 4.6 mmHg; Reduction of Blood Pressure ([1]; 100 ng/kg): -67.0 ± 3.1 mmHg; activation at 2 µM ([3]; 2 × 10^-6 M, PRP = 0%, PPP = 100%): 86%; activation at 0.2 µM ([3]; 2 × 10^-7 M, PRP = 0%, PPP = 100%): 81%; activation at 0.02 µM ([3]; 2 × 10^-8 M, PRP = 0%, PPP = 100%): 67%; activation at 0.002 µM ([3]; 2 × 10^-9 M, PRP = 0%, PPP = 100%): 18%; activation at 0.0002 µM ([3]; 2 × 10^-10 M, PRP = 0%, PPP = 100%): 0%; EC50 [3]: 18 nM |
| CCCCCCCCCCCCCCCCOCC(COP(=O)([O-])OC1CCC[N+](C)(C)C1)OC(C)=O (stereo not drawn) [Example 1, 2-Acetyloxy-3-hexadecyloxypropyl 1,1-dimethylpiperidinio-3-yl phosphate] | 0.013 µg/kg |  |  |  |  |  |  |  | 0.6 nM |  |
| CCCCCCCCCCCCCCCCOC(C)C(COP(=O)([O-])OC1CC[N+](C)(C)CC1)OC(C)=O (stereo not drawn) [Example 5, 2-Acetyloxy-3-hexadecyloxybutyl 1,1-dimethylpiperidinio-4-yl phosphate] | 8.6 µg/kg | +5.0 mmHg | 0 mmHg | -14.5 mmHg | -19.0 mmHg | -22.5 mmHg | -26.0 mmHg | -28.0 mmHg | 630 nM |  |
| CCCCCCCCCCCCCCCCOCC(COP(=O)([O-])OC1CC[N+](C)(C)CC1)OC(C)=O (stereo not drawn) [Example 2, 2-Acetyloxy-3-hexadecyloxypropyl 1,1-dimethylpiperidinio-4-yl phosphate] | 0.058 µg/kg |  |  |  |  |  |  |  | 8 nM |  |

Reference: patent US5053402A, “Certain glyceryl phosphate-cyclic ammonium compounds useful for treating hypertension” (Nippon Chemiphar Co., Ltd., priority 1986, dated 1991)
